Source: ChEMBL document CHEMBL1133988 (Bioorg Med Chem Lett, 2001)
In brackets after ≈: the same amount, converted by molar mass.

Columns and labels:
Plasmodium falciparum = assay: In vitro antiprotozoal activity against Plasmodium falciparum infected erythrocytes; type: functional, organism-based
Eimeria tenella = assay: In vitro antiprotozoal activity using […] bovine kidney host cells infected with Eimeria tenella; type: functional
Histone deacetylase = assay: Inhibitory activity against histone deacetylase (HDAC) enzyme derived from partially purified extracts of human HeLa cells using [3H]11 as radioligand
[1] = Binding affinity towards HDAC enzyme derived from chicken liver (CL) cells; design: species or system Gallus gallus
[2] = Tested in vitro by mammalian antiproliferative functional assay using human HeLa cells or foreskin fibroblasts
[3] = Binding affinity towards histone deacetylase (HDAC) enzyme derived from chicken liver (CL) cells using [3H]11; design: species or system Gallus gallus

SMILES | IC50 (Plasmodium falciparum) | IC50 (Histone deacetylase) | MIC (Eimeria tenella) | Ki [1] | AP50 [2] | Ki [3]
CCC(=O)CCCCC[C@@H]1NC(=O)[C@H]2CCCCN2C(=O)[C@H]([C@@H](C)CC)NC(=O)[C@H](Cc2c[nH]c3ccccc23)NC1=O | 0.035 µg/mL (≈ 0.0589 µM) | 2 nM | 0.031 µg/mL (≈ 0.0522 µM) |  |  | 
CCC(=O)CCCCC[C@@H]1NC(=O)[C@H]2CCCCN2C(=O)[C@H]([C@@H](C)CC)NC(=O)[C@H](c2cnc3ccccc3c2Cl)NC1=O [listing 1 of 2 here] | 0.225 µg/mL (≈ 0.359 µM) | 67 nM |  | 300 nM |  | 
CCC(=O)CCCCC[C@@H]1NC(=O)[C@H]2CCCCN2C(=O)[C@H]([C@@H](C)CC)NC(=O)[C@@H](c2cnc3ccccc3c2O)NC1=O | 0.055 µg/mL (≈ 0.0905 µM) |  | > 1 µg/mL | 500 nM | >10000 ng/mL | 
CCC(=O)CCCCC[C@@H]1NC(=O)[C@H]2CCCCN2C(=O)[C@H]([C@@H](C)CC)NC(=O)[C@H](CCOc2ccccc2)NC1=O |  | 34 nM | 0.25 µg/mL (≈ 0.428 µM) |  | 1450 ng/mL | 
CCC(=O)CCCCC[C@@H]1NC(=O)[C@H]2CCCCN2C(=O)[C@H]([C@@H](C)CC)NC(=O)[C@H](c2cn(CC)c3ccccc3c2=O)NC1=O | 0.24 µg/mL (≈ 0.377 µM) |  | > 1 µg/mL | 2000 nM | >10000 ng/mL | 
CCCn1cc(C(=O)[C@H]2NC(=O)[C@H](CCCCCC(=O)CC)NC(=O)[C@H]3CCCCN3C(=O)[C@H]([C@@H](C)CC)NC2=O)c2ccccc21 | 0.15 µg/mL (≈ 0.231 µM) | 15 nM | 0.125 µg/mL (≈ 0.192 µM) |  |  | 
CCC(=O)CCCCC[C@@H]1NC(=O)[C@H]2CCCCN2C(=O)[C@H]([C@@H](C)CC)NC(=O)[C@H](c2cnc3ccccc3c2Cl)NC1=O [listing 2 of 2 here] |  |  | 0.2 µg/mL (≈ 0.319 µM) |  | 10000 ng/mL | 
CCC(=O)CCCCC[C@@H]1NC(=O)[C@H]2CCCCN2C(=O)[C@H]([C@@H](C)CC)NC(=O)[C@H](Cc2cn(CC(=O)O)c3ccccc23)NC1=O | > 1 µg/mL |  | > 1 µg/mL |  |  | 80 nM
CCC(=O)CCCCC[C@@H]1NC(=O)[C@H]2CCCCN2C(=O)[C@H]([C@@H](C)CC)NC(=O)[C@H](Cc2cn(CC)c3ccccc23)NC1=O | 0.18 µg/mL (≈ 0.289 µM) |  | 0.05 µg/mL (≈ 0.0804 µM) |  |  | 10 nM
CCC(=O)CCCCC[C@@H]1NC(=O)[C@H]2CCCCN2C(=O)[C@H]([C@@H](C)CC)NC(=O)[C@H](Cc2cn(OC)c3ccccc23)NC1=O [APICIDIN] | 0.058 µg/mL (≈ 0.093 µM) |  | 0.094 µg/mL (≈ 0.151 µM) | 4 nM | 89 ng/mL | 
CCC(=O)CCCCC[C@@H]1NC(=O)[C@H]2CCCCN2C(=O)[C@H]([C@@H](C)CC)NC(=O)[C@@H](C(=O)c2c[nH]c3ccccc23)NC1=O | 0.07 µg/mL (≈ 0.115 µM) |  | 0.125 µg/mL (≈ 0.206 µM) |  |  | 30 nM
CCC(=O)CCCCC[C@@H]1NC(=O)[C@H]2CCCCN2C(=O)[C@H]([C@@H](C)CC)NC(=O)[C@H](c2cnc3ccccc3c2N2CCCCC2)NC1=O [listing 1 of 2 here] | 0.055 µg/mL (≈ 0.0815 µM) | 13 nM |  | 100 nM |  | 
CCC(=O)CCCCC[C@@H]1NC(=O)[C@H]2CCCCN2C(=O)[C@H]([C@@H](C)CC)NC(=O)[C@H](Cc2c(Br)[nH]c3ccccc23)NC1=O | 0.025 µg/mL (≈ 0.0372 µM) |  | 0.015 µg/mL (≈ 0.0223 µM) |  |  | 3 nM
CCCCCCCCCCC(=O)C[C@@H]1NC(=O)[C@H](CCCCCC(=O)CC)NC(=O)[C@H]2CCCCN2C(=O)[C@H]([C@@H](C)CC)NC1=O | > 1 µg/mL |  | > 1 µg/mL | > 1000 nM | >10000 ng/mL | 
CCC(=O)CCCCC[C@@H]1NC(=O)[C@H]2CCCCN2C(=O)[C@H]([C@@H](C)CC)NC(=O)[C@H](c2cnc3ccccc3c2O)NC1=O | 0.04 µg/mL (≈ 0.0658 µM) |  | > 1 µg/mL | 1000 nM | >10000 ng/mL | 
CCC(=O)CCCCC[C@@H]1NC(=O)[C@H]2CCCCN2C(=O)[C@H]([C@@H](C)CC)NC(=O)[C@H](C(=O)c2c[nH]c3ccccc23)NC1=O | 0.016 µg/mL (≈ 0.0263 µM) |  | 0.125 µg/mL (≈ 0.206 µM) |  |  | 12 nM
CCC(=O)CCCCC[C@@H]1NC(=O)[C@H]2CCCCN2C(=O)[C@H]([C@@H](C)CC)NC(=O)[C@H](c2cnc3ccccc3c2N2CCCCC2)NC1=O [listing 2 of 2 here] |  |  | 0.125 µg/mL (≈ 0.185 µM) |  | 2500 ng/mL | 

Further lines, with some results ahead:

IC50 (Plasmodium falciparum) | IC50 (Histone deacetylase) | SMILES | MIC (Eimeria tenella) | Ki [1] | AP50 [2] | Ki [3]
0.035 µg/mL (≈ 0.0517 µM) | 0.2 nM | CCC(=O)CCCCC[C@@H]1NC(=O)[C@H]2CCCCN2C(=O)[C@H]([C@@H](C)CC)NC(=O)[C@H](Cc2cn(CN3CCCC3)c3ccccc23)NC1=O | 0.031 µg/mL (≈ 0.0458 µM) |  |  | 
0.5 µg/mL (≈ 0.797 µM) | 91 nM | CCC(=O)CCCCC[C@@H]1NC(=O)[C@H]2CCCCN2C(=O)[C@H]([C@@H](C)CC)NC(=O)[C@H](CC(=O)c2ccccc2[N+](=O)[O-])NC1=O | 0.125 µg/mL (≈ 0.199 µM) |  |  | 
0.55 µg/mL (≈ 0.783 µM) |  | CCC(=O)CCCCC[C@@H]1NC(=O)[C@H]2CCCCN2C(=O)[C@H]([C@@H](C)CC)NC(=O)[C@H](Cc2cn(OC)c3ccc(Br)cc23)NC1=O | 0.5 µg/mL (≈ 0.712 µM) |  |  | 60 nM
0.85 µg/mL (≈ 1.42 µM) |  | CCC(=O)CCCCC[C@@H]1NC(=O)[C@H]2CCCCN2C(=O)[C@H]([C@@H](C)CC)NC(=O)[C@H](CC(=O)Cc2ccccc2)NC1=O | > 1 µg/mL | 2000 nM | >10000 ng/mL | 
0.775 µg/mL (≈ 1.38 µM) |  | CCC(=O)CCCCC[C@@H]1NC(=O)[C@H]2CCCCN2C(=O)[C@H]([C@@H](C)CC)NC(=O)[C@H](CC(=O)C(C)(C)C)NC1=O | > 1 µg/mL | 2000 nM | >10000 ng/mL | 
0.777 µg/mL (≈ 1.33 µM) |  | CCC(=O)CCCCC[C@@H]1NC(=O)[C@H]2CCCCN2C(=O)[C@H]([C@@H](C)CC)NC(=O)[C@@H](C(=O)Cc2ccccc2)NC1=O | 0.5 µg/mL (≈ 0.858 µM) | 500 nM | >10000 ng/mL | 
0.02 µg/mL (≈ 0.0329 µM) |  | CCC(=O)CCCCC[C@@H]1NC(=O)[C@H]2CCCCN2C(=O)[C@H]([C@@H](C)CC)NC(=O)[C@H](Cc2cn(C)c3ccccc23)NC1=O | 0.125 µg/mL (≈ 0.206 µM) |  |  | 5 nM
0.015 µg/mL (≈ 0.0241 µM) |  | CCC(=O)CCCCC[C@@H]1NC(=O)[C@H]2CCCCN2C(=O)[C@H]([C@@H](C)CC)NC(=O)[C@@H](C(=O)c2ccc3c(ccn3C)c2)NC1=O | 0.05 µg/mL (≈ 0.0804 µM) |  |  | 20 nM
0.7 µg/mL (≈ 1.04 µM) | 4 nM | CCC(=O)CCCCC[C@@H]1NC(=O)[C@H]2CCCCN2C(=O)[C@H]([C@@H](C)CC)NC(=O)[C@H](Cc2c(-c3ccccc3)[nH]c3ccccc23)NC1=O | > 1 µg/mL |  |  | 
0.1 µg/mL (≈ 0.157 µM) | 1.3 nM | CCC(=O)CCCCC[C@@H]1NC(=O)[C@H]2CCCCN2C(=O)[C@H]([C@@H](C)CC)NC(=O)[C@H](Cc2cn(CCN)c3ccccc23)NC1=O | > 1 µg/mL |  |  | 
> 1 µg/mL |  | CCC(=O)CCCCC[C@@H]1NC(=O)[C@H]2CCCCN2C(=O)[C@H]([C@@H](C)CC)NC(=O)[C@H](CC2CN(OC)c3ccc(Br)cc32)NC1=O (stereo not given in full) | 0.1 µg/mL (≈ 0.142 µM) |  |  | 4500 nM
0.1 µg/mL (≈ 0.138 µM) |  | CCC(=O)CCCCC[C@@H]1NC(=O)[C@H]2CCCCN2C(=O)[C@H]([C@@H](C)CC)NC(=O)[C@H](Cc2c(-c3ccc4c(ccn4C)c3)[nH]c3ccccc23)NC1=O | 0.062 µg/mL (≈ 0.0858 µM) |  |  | 5 nM
0.25 µg/mL (≈ 0.343 µM) | 0.2 nM | CCC(=O)CCCCC[C@@H]1NC(=O)[C@H]2CCCCN2C(=O)[C@H]([C@@H](C)CC)NC(=O)[C@H](Cc2c(-c3cc(OC)cc(OC)c3)[nH]c3ccccc23)NC1=O | 0.125 µg/mL (≈ 0.171 µM) |  |  | 
0.04 µg/mL (≈ 0.0627 µM) |  | CCC(=O)CCCCC[C@@H]1NC(=O)[C@H]2CCCCN2C(=O)[C@H]([C@@H](C)CC)NC(=O)[C@H](c2cn(OC)c3ccccc3c2=O)NC1=O | 0.25 µg/mL (≈ 0.392 µM) | 1500 nM | 10000 ng/mL | 
